The test system of series [1] is parent untransformed BaF3 cells. Briefly: Tritiated thymidine uptake cell proliferation assay, parental BaF3 (control). It counts as cell-based. The conditions noted are these: Mus musculus, 3[H]-thymidine uptake, 72 h, medium with IL-3, read-out: BaF parental IC50. On the procedure:
(§1) Method: Tritiated Thymidine Uptake Cell Proliferation Assay
(§2) The following procedure was used with parent untransformed BaF3 cells, BaF3 cells transformed with the oncogenic fusion protein NPM/ALK, NPM/ALK positive SUDHL-1 cells, ALK-negative U937 cells, NPM/ALK positive KARPAS-299 cells. The parent untransformed BaF3 cells and Alk-negative U937 cells are used as controls. Cells were seeded in U-bottomed 96-well plates at 10 000 cells/well in a volume of 100 μL in supplemented medium. In the case of the parent untransformed BaF3 cells, the medium was supplemented with IL-3. Serial dilutions of inhibitors were added to the appropriate wells and volumes adjusted to 200 μL. Controls were treated with the equivalent volume of vehicle, DMSO, alone. Plates were incubated at 37° C. for 72 h. ^3[H]-thymidine (1 μCi/well) was added for the last 16 h of incubation. Cells were harvested on to paper filters and ^3[H]-thymidine incorporation was measured using a β scintillation counter (1430 MicroBeta, Wallac, Turku, Finland). The 50% inhibitory concentration (IC50) was defined as the concentration of inhibitor, expressed in micromolar, that gave a 50% decrease in ^3[H]-thymidine uptake compared with controls.
as §2, with “protein bcr-abl, Abl-negative” for “protein NPM/ALK, NPM/ALK positive SUDHL-1 cells, ALK-negative”, “cells, or Bcr-abl” for “cells, NPM/ALK”, “positive LAMA-84” for “positive KARPAS-299”, “and Abl-negative” for “and Alk-negative”, “in ^3H-thymidine” for “in ^3[H]-thymidine”
as §2, with “RET-PTC2, or RET-negative 11937” for “NPM/ALK, NPM/ALK positive SUDHL-1 cells, ALK-negative U937 cells, NPM/ALK positive KARPAS-299”, “RET-negative” for “Alk-negative”

For series [2], the target named is T1, Recombinant ALK kinase (Homo sapiens, UniProt Q9UM73).
T1 construct: made in house; host or cells: Sf9 insect cells (baculovirus)
The series is described as follows: ALK kinase inhibitory activity, ELISA-based in vitro kinase assay. It counts as biochemical. The note with it: purified rALK, 0.3 mM ATP, read-out: ALK IC50. As to the method: 36. Alk Kinase Inhibitory Activity
(§3) Method: ELISA-Based In Vitro Kinase Assay
(§4) Recombinant ALK kinase was expressed in Sf9 insect cells using the pBlueBacHis2C baculovirus vector system and purified using an anion exchange Fast Flow Q-sepharose column (Amersham-Pharmacia Biotech) followed by HiTrap™-nickel affinity column (Amersham-Pharmacia Biotech). Purified ALK protein was used to screen inhibitors in the ELISA-based kinase assay. A Nunc Immuno 96 well plate was incubated overnight at 37° C. with coating solution (125 μL/well) containing ALK peptide substrate ([…]) (SEQ ID NO: 1) at various concentrations in PBS. Wells were then washed with 200 μL of wash buffer (PBS-Tween 0.05%) and left to dry for at least 2 h at 37° C. The kinase reaction was performed in the presence of 50 mM Tris pH 7.5, 5 mM MnCl2, 5 mM MgCl2, 0.3 mM ATP and purified rALK in a total volume of 100 μL/well at 30° C. for 15 min. For inhibitor testing the reaction mix was preincubated with the inhibitor or solvent control for 10 min at room temperature before transferring to the ELISA plate. After the reaction wells were washed 5 times with 200 μL of wash buffer. Phosphorylated peptide was detected using 100 μL/well of a mouse monoclonal anti-phosphotyrosine antibody (clone 4G10 Upstate Biotech Ltd) diluted 1:2000 in PBS+4% BSA. After 30 min incubation at room temperature the antibody was removed and wells were washed as described above. 100 μL of a secondary antibody (anti-mouse IgG, Horseradish Peroxidase linked whole antibody, Amersham Pharmacia Biotech) diluted 1:1000 in PBS+4% BSA was added to each well and the plate was incubated again for 30 min at room temperature before washing as above. The plate was developed using 100 μL/well TMB Substrate Solution (Endogen) and the reaction was stopped by adding an equiv.ual volume of H2SO4 0.36 M. Finally, the absorbance was read at 450 nm using an Ultrospec® 300 spectrophotometer (Amersham-Pharmacia Biotech). The concentration of the test solution showing 50% inhibition as compared with the control was expressed as IC50 (μM).
For orientation: An ELISA detects its analyte on a solid surface through an enzyme-linked reagent.

For series [3], the target named is T2, BaF3 cells transformed with the oncogenic fusion protein NPM/ALK (Homo sapiens, UniProt Q9UM73).
T2 construct: fused on or other part: P06748 (Nucleophosmin)
Briefly: Tritiated thymidine uptake cell proliferation assay, BaF3 NPM/ALK. It counts as cell-based. The note with it: 3[H]-thymidine uptake, 72 h; read-out: BaF NPM/ALK IC50. On the procedure:
Inhibition of the proliferation of NPM/ALK positive cells
as §1, §2

Series [4] addresses T3, Recombinant Abl T315I protein (Homo sapiens, UniProt P00519, T315I).
T3 construct: made in house; host or cells: Sf9 cells (baculovirus)
Briefly: Abl T315I mutant kinase inhibitory activity, ELISA-based in vitro kinase assay. It counts as biochemical. The note with it: purified Abl T315I, 0.3 mM ATP. On the procedure: as §4
37. Abl T315I Mutant Kinase Inhibitory Activity
as §3
Recombinant Abl T315I protein was expressed in Sf9 cells using the pBlueBacHis2C baculovirus expression vector. Abl T315I was purified using an anion exchange Fast Flow Q-sepharose column (Amersham-Pharmacia Biotech) followed by HiTrap™-nickel affinity column (Amersham-Pharmacia Biotech). Purified Abl T315I was used in the ELISA-based kinase assay to screen inhibitors as described above. The kinase reaction was performed in the presence of 50 mM Tris pH 7.5, 1 mM MnCl2, 5 mM MgCl2, 0.3 mM ATP, peptide substrate ([…]) (SEQ ID NO: 1) and purified Abl T315I. The concentration of the test solution showing 50% inhibition as compared with the control was expressed as IC50 (μM).

A word on the IC50: it is the concentration needed to halve the response being measured. The term melting point denotes the temperature of the solid-liquid transition.

T2 sequence (Q9UM73 whole entry, change not shown, the tested form may be a part): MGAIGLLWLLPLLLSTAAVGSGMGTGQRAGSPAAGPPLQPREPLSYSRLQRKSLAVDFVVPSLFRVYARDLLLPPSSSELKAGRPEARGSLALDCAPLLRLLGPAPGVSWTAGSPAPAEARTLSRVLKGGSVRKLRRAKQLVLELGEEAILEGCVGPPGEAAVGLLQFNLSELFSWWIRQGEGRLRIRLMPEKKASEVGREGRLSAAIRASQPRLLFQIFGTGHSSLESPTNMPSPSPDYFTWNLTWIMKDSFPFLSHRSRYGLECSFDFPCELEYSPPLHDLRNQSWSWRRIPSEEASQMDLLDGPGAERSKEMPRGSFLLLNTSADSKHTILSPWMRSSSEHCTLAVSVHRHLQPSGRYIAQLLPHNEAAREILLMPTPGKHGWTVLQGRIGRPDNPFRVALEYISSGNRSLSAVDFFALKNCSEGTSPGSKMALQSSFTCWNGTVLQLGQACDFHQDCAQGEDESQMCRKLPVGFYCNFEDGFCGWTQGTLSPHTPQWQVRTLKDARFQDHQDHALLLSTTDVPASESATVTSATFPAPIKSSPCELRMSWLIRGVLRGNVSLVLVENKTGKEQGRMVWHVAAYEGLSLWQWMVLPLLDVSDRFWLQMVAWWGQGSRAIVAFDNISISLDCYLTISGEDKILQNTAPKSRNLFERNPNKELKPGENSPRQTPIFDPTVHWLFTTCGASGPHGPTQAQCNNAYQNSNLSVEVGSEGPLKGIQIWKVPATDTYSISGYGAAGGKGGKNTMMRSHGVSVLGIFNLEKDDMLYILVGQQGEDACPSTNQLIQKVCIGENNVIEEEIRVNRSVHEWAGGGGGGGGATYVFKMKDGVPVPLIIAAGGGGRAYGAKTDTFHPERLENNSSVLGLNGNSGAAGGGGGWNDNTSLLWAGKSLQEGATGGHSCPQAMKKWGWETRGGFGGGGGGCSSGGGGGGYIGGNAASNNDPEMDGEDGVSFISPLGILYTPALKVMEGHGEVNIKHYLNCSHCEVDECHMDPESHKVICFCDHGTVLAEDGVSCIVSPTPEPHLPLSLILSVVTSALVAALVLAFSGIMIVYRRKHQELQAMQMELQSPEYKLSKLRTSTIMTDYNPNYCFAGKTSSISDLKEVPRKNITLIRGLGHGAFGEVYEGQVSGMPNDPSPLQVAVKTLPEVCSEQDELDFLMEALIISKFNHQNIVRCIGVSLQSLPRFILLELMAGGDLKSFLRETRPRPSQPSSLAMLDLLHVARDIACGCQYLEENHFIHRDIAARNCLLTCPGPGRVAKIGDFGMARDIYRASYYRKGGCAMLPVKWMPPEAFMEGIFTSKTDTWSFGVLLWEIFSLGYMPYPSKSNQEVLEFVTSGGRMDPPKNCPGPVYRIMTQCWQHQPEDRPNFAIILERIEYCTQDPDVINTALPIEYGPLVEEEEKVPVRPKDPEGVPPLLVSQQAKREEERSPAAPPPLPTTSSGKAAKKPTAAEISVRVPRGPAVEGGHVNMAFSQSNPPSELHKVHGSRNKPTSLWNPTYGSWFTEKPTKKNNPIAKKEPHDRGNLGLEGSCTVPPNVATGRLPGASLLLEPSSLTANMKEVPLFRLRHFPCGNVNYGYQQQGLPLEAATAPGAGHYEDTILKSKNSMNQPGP
T1 sequence (Q9UM73 19-1620): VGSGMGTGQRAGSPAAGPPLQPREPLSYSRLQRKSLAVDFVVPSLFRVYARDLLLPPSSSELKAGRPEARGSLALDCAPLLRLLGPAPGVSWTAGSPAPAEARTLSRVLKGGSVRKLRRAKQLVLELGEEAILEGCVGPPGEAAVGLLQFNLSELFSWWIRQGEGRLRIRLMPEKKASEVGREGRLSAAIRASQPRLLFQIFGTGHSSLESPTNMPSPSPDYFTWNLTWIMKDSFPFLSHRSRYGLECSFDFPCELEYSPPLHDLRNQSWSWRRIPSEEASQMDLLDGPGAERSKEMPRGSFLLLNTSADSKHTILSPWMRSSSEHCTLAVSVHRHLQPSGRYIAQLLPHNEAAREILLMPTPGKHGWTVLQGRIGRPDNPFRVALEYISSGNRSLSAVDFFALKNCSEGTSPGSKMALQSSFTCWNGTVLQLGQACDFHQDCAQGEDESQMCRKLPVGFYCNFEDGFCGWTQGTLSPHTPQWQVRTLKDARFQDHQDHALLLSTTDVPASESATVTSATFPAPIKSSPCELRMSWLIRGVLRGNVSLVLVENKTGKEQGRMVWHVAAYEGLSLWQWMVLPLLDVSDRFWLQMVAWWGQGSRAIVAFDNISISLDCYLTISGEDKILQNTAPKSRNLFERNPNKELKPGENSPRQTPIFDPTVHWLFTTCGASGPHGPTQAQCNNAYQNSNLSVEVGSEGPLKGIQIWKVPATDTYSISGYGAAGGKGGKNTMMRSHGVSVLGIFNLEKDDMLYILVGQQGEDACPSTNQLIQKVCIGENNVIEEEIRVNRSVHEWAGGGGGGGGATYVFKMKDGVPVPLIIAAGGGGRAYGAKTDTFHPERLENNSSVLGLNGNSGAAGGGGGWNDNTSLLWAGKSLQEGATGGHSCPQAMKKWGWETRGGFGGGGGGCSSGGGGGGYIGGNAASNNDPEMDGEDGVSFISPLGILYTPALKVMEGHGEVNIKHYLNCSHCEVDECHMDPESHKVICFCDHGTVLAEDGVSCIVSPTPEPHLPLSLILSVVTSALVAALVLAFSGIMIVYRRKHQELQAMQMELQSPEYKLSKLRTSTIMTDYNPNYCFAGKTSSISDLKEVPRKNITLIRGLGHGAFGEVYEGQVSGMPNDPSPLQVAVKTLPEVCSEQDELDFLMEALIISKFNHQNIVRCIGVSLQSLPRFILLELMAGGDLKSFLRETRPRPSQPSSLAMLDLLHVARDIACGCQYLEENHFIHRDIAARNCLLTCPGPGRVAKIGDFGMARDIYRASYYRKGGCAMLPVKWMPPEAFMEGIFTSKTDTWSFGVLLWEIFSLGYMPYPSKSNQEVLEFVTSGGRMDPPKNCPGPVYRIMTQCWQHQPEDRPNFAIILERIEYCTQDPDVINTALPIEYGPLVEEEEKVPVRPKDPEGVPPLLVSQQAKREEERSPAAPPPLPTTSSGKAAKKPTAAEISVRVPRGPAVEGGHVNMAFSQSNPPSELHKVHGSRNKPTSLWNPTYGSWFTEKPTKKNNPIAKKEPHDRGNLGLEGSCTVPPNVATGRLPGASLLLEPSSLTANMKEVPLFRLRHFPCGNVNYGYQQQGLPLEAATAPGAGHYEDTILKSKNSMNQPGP

On to `CN1CCN(C(=O)CCC(=O)c2ccc3[nH]c4nc(Cl)ccc4c3c2)CC1` [R302, 1-(2-Chloro-9H-pyrido[2,3-b]indol-6-yl)-4-(4-methylpiperazin-1-yl)butane-1,4-dione], for which the IC50 in series [1] was found to be 5.8 µM; in series [2] it was 24 ± 2 µM. Further, the GI50 in series [3] was 4.8 µM.

Consider `CN1CCN(C(=O)CCC(=O)c2ccc3[nH]c4ncc(Cl)cc4c3c2)CC1` [R303, 1-(3-Chloro-9H-pyrido[2,3-b]indol-6-yl)-4-(4-methylpiperazin-1-yl)butane-1,4-dione], for which the IC50 in series [4] was 87 µM; in series [1] it was 9.5 µM; in series [2] it was 93 ± 1 µM. In addition, the GI50 in series [3] was found to be 5.1 µM.

As for `CCN(CC)CCSCC(=O)c1ccc2[nH]c3nc(Cl)ccc3c2c1` [R305, 1-(2-Chloro-9H-pyrido[2,3-b]indol-6-yl)-2-(N,N-diethylaminoethylsulfanyl)ethan-1-one], the half-maximal inhibitory concentration (IC50) in series [4] is 16 µM; in series [1], 5.5 µM; in series [2], 17 ± 1 µM. In addition, the GI50 in series [3] was found to be 5.2 µM.

`Clc1cnc2[nH]c3ccc(-c4ccc(N5CCOCC5)cn4)cc3c2c1` [R308, 3-Chloro-6-(5-morpholin-4-yl-pyridin-2-yl)-9H-pyrido[2,3-b]indole]: the IC50 is 50 µM in series [1] and more than 100 µM in series [2]. Further, the GI50 in series [3] worked out at 60 µM.

For the compound `C(=C\c1ccnc2[nH]c3ccccc3c12)/c1ccccc1` [R310, 4-(2′-phenylethenyl)-9H-pyrido[2,3-b]indole], the melting point is more than 220 °C.

As for `Clc1cnc2[nH]c3ccc(-c4ccc(CN5CCOCC5)cc4)cc3c2c1` [R313, 3-chloro-6-(4-(morpholin-4-yl)methylphenyl)-9H-pyrido[2,3-b]indole], the IC50 in series [4] is more than 10 µM; in series [1], 0.5 µM; in series [2], 8.8 ± 2.7 µM. Moreover, in series [3], the GI50 was determined as 0.64 µM.

`C(=C\c1ccc2c(n1)[nH]c1ccc(-c3ccc(CN4CCOCC4)cc3)cc12)/c1ccccc1` [R316]: the IC50 in series [1] and in series [2] was more than 33 µM each time. Also, the GI50 in series [3] came to 10 µM.

On to `O=[N+]([O-])c1cccc(Nc2ccc3c(n2)[nH]c2ccccc23)c1` [R317, N-(3-nitrophenyl)-9H-pyrido[2,3-b]indol-2-amine], for which the IC50 in series [4] stood at 26 µM; in series [1], 6.3 µM; in series [2], 8.2 ± 2.1 µM. The GI50 in series [3] was found to be 2.6 µM.

In the case of `O=[N+]([O-])c1ccccc1Nc1ccc2c(n1)[nH]c1ccccc12` [R319, N-(2-nitrophenyl)-9H-pyrido[2,3-b]indol-2-amine], the figures for the IC50 in series [4], in series [1] and in series [2] were 16 µM, 44 µM and 4.7 ± 0.2 µM, respectively. In series [3], the GI50 was 11 µM.

Consider `C(=C\c1ccc2[nH]c3nc(Nc4ccccc4)ccc3c2c1)/c1ccccc1` [R320], for which the IC50 in series [1] worked out at 23 µM.

Take `CCN(CC)CCSCC(=O)c1ccc2[nH]c3nc(Nc4cccc([N+](=O)[O-])c4)ccc3c2c1` [R321, 2-(2′-(N,N-diethylamino)ethylthio)-1-[2-(3-nitrophenylamino)-9H-pyrido[2,3-b]indol-6-yl]ethanone]: the IC50 amounted to 0.7 µM in series [1] and 18 ± 1 µM in series [2]. In addition, the GI50 in series [3] worked out at 0.3 µM.

For `O=[N+]([O-])c1cccc(Nc2ccnc3[nH]c4ccccc4c23)c1` [R322, N-(3-nitrophenyl)-9H-pyrido[2,3-b]indol-4-amine], the IC50 in series [1] was more than 100 µM; in series [2], 20 ± 4 µM. In series [3], the GI50 is 57 µM.

In the case of `COc1cccc(Nc2ccnc3[nH]c4ccccc4c23)c1` [R324, N-(3-methoxyphenyl)-9H-pyrido[2,3-b]indol-4-amine], the IC50 is 1.7 µM in series [1] and more than 100 µM in series [2]. Further, the GI50 in series [3] turned out to be 3.8 µM.

In the case of `c1coc(-c2cnc3[nH]c4ccccc4c3c2)c1` [R325, 3-(furan-2-yl)-9H-pyrido[2,3-b]indole], the IC50 in series [1] is more than 100 µM. Further, the GI50 in series [3] was more than 100 µM.

On to `O=[N+]([O-])c1cccc(-c2cnc3[nH]c4ccccc4c3c2)c1` [R328, 3-(3-nitrophenyl)-9H-pyrido[2,3-b]indole], for which the half-maximal inhibitory concentration (IC50) turned out to be 6.8 µM in series [1] and 48 ± 17 µM in series [2]. Moreover, the GI50 in series [3] is 13 µM.

Regarding `c1ccc(-c2ccc(-c3cnc4[nH]c5ccccc5c4c3)cc2)cc1` [R329, 3-(4-phenylphenyl)-9H-pyrido[2,3-b]indole], the half-inhibitory concentration (IC50) in series [1] was more than 100 µM; in series [2], 12 ± 7 µM. Also, the GI50 in series [3] is more than 100 µM.

In the case of `c1ccc(-c2ccc(-c3ccnc4[nH]c5ccccc5c34)cc2)cc1` [R330, 4-(4-phenylphenyl)-9H-pyrido[2,3-b]indole], the values for the IC50 in series [1] and in series [2] were more than 100 µM and 14 ± 2 µM, respectively. The GI50 in series [3] is more than 100 µM.

Regarding `O=C(O)c1ccc2[nH]c3ncc(Cl)cc3c2c1` [compound 5, 3-chloro-9H-pyrido[2,3-b]indol-6-carboxylic acid], the melting point was more than 295 °C.

As to `Cc1ccc2c(n1)[nH]c1ccc(C(=O)O)cc12` [compound 6, 2-methyl-9H-pyrido[2,3-b]indol-6-carboxylic acid], the melting point is more than 295 °C.

The compound `Clc1ccc2c(n1)[nH]c1ccc(Br)cc12` [compound 9, 6-bromo-2-chloro-9H-pyrido[2,3-b]indole] came in with a melting point of more than 220 °C.

In the case of `Clc1ccnc2[nH]c3ccc(Br)cc3c12` [compound 10, 6-bromo-4-chloro-9H-pyrido[2,3-b]indole], the melting point is more than 220 °C.

The record behind these values is patent US8895744B2, “Alfa-carboline inhibitors of NPM-ALK, RET, and Bcr-Abl” (Universita' Degli Studi di Milano-Bicocca, priority 2008, dated 2014).
